{"source": "patent US20060121082A1", "about": "“Method to enhance drug release from a drug-releasing material” (priority 2004, published 2006)", "assay": "microbiological proof of ciprofloxacin bioactivity after manufacturing and during in vitro drug release tests", "conditions": "microbiologically proved"}
{"compound": "O=C(O)c1cn(C2CC2)c2cc(N3CCNCC3)c(F)cc2c1=O", "note": "[Ciprofloxacin, ciprofloxacin]", "values": [{"measurement": "bioactivity of ciprofloxacin after manufacturing and during the in vitro drug release tests", "setting": "Example 1, P(L/DL)LA composite", "value": "bioactive"}, {"measurement": "bioactivity of ciprofloxacin after manufacturing and during the in vitro drug release tests", "setting": "Example 2, PLGA composite", "value": "bioactive"}]}
